Here are results for 1 compound from patent publication US8592344B2, “Pesticidal compositions comprising 4,5-dihydroxyindan-1-one” (Yissum Research Development Company of The Hebrew …, priority 2009, dated 2013).

A word on the mortality: it is the share of the test organisms that died. A high value points to fewer survivors.

For experiment [1], the system named is Agrobacterium tumefaciens (strain ID1). Put plainly: Antibacterial activity, inhibition haloes of chromatographed fractions. It is filed as cell-based. Conditions: RPLC fraction in 10 μl methanol, 24 hours, 28° C. The method, then:
The bacterium was grown overnight in glass tubes containing a 5 ml Lennox Broth (LB, Difco). Fifty μl overnight-grown bacterial suspensions were added to 5 ml of LB containing 0.6% agar, and placed into Petri dishes (55 mm diameter). Each of the eluted chromatographed fractions was dried using a rotor evaporator, dissolved in 10 μl of methanol, pipetted into the Petri dishes and incubated at 28° C. Each dish was checked for inhibition haloes 24 hours later; 10 μl methanol alone was used as a control. This procedure was repeated four times to confirm of the toxicity of the fractions. The RPLC-cleaned fraction that was antagonistic to A. tumefaciens was concurrently assayed against the citrus rust mite (describe below).

Experiment [2] concerns citrus rust mite, Phyllocoptruta oleivora. Put plainly: whole plant or invertebrate. The settings on record: recorded 24 h later. It is filed as in vivo. As to the method:
The CRM population was obtained from Mineola Tangelo (C. paradisi×C. reticulata) fruits at the Tzrifin farm, on the coastal plain of Israel. No acaricides are being used at this farm, making the location a suitable place for our purposes. In the laboratory the pest was reared on young seedlings (6-8 weeks old) of sour orange (Citrus aurantium).
In order to determine the CRM dose response to the toxin, 0.01, 0.02, 0.05, 0.1, 0.2 and 0.4 mg/ml of RPLC-cleaned toxin, dissolved in a two ml volume of ddH2O, was sprayed on the CRM (thirty CRMs/leaf, in four replicates). The infested seedlings were incubated at 25° C., (12L: 12D). Mite mortality rates were recorded 24 h later.

In the case of `O=C1CCc2c1ccc(O)c2O` [argovin, 4,5-dihydroxyindan-1-one], the “activity against A. tumefaciens (inhibition halo)” value in experiment [1] is listed as “active”. Also, in experiment [2] (0.01 mg/ml sprayed, control 6%), the mortality at 10 µg/mL was 39%. In experiment [2] (0.2 mg/ml sprayed), this compound registered a mortality at 200 µg/mL of 100%.
